The record followed here is patent US8137946B2, “Recombinant GRAS strains expressing thermophilic arabinose isomerase as an active form and method of preparing food grade tagatose by using the same” (CJ Cheiljedang Corporation, priority 2006, dated 2012).

Data set [1] addresses T1, Geobacillus thermodenitrificans arabinose isomerase (mGTAI), recombinant, expressed in and purified from Corynebacterium glutamicum mGTAIC001 (Geobacillus thermodenitrificans, UniProt A4IPA1, C449S/N474K).
T1 sequence (A4IPA1 with tags, fused parts or gaps C449S/N474K): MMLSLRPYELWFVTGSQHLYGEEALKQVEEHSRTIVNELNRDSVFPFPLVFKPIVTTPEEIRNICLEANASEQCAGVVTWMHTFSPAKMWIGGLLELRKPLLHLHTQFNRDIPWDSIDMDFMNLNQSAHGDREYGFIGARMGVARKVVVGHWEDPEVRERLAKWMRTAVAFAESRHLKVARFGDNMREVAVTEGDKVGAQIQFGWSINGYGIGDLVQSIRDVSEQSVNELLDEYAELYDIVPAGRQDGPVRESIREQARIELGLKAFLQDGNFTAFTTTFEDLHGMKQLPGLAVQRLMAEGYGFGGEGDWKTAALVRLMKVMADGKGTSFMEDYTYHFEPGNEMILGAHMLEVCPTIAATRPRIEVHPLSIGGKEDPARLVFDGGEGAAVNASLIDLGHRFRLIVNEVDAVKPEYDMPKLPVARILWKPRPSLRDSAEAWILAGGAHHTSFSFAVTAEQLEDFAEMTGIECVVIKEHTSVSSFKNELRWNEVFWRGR
Nature of the data set: Enzyme kinetics of purified recombinant arabinose isomerase (isomerization of galactose into tagatose). As to the method: The culture solution was centrifuged at 8000×g for 10 minutes and cells were recovered. The cells were resuspended in 50 mM Tris-HCl (pH 7.0) buffer, and used for the protein purification. The cell suspension progressed to cell lysis using a high pressure cell homogenizer T-series (4.0 kW; Constant systems, UK), followed by heat-treatment at […] for 20 minutes. Centrifugation was performed at 10,000×g for 10 minutes to separate the expressed recombinant thermophilic arabinose isomerase.
The separated recombinant enzyme solution was filtered by ultrafiltration (MW: 10,000; Sartorius, U.S.A.) and was purified by Q Sepharose Fast Flow (anion exchange column) (staring buffer: 20 mM Tris-HCl, pH 7.5, elution buffer: 20 mM Tris-HCl (pH 7.5)+500 mM NaCl). The protein was purified by FPLC system and it was analyzed by SDS-PAGE.
The activity of the enzyme was measured by the cystein-carbazol-sulfuric acid method (Dische, Z., and E. Borenfreund., A New Spectrophotometric Method for the Detection and Determination of Keto Sugars and Trioses, J. Biol. Chem., 192:583-587, 1951). The fraction contained in the enzyme solution was analysed by SDS-PAGE.
The activity of the enzyme was measured in the reaction buffer (50 mM Tris-HCl, pH 7.0, 1 mM MnCl2 was added) at 55° C. to 85° C. (at intervals of 5° C.). The activity of the enzyme was measured by the cystein-carbazol-sulfuric acid method (Dische, Z., and E. Borenfreund., A New Spectrophotometric Method for the Detection and Determination of Keto Sugars and Trioses, J. Biol. Chem., 192:583-587, 1951).
To measure the enzyme kinetics of purified arabinose isomerase of the present invention, kinetic parameters were determined at 60° C., 65° C. and 70° C. (table 5).

Substrate in data set [2]: OC[C@H]1OC(O)[C@H](O)[C@@H](O)[C@H]1O
The data set can be described thus: purified protein, by the assay type.

Several values for one entry are separate records, joined by “and”; a condition that tells them apart may be missing. Equal values may be shown once.

The kcat/Km is the turnover number divided by the Michaelis constant. In general, Km refers to the substrate concentration at which the rate is half of its maximum.

As to `OC[C@H]1OC(O)[C@H](O)[C@@H](O)[C@H]1O` (stereo partly drawn) [galactose], the kcat/Km in data set [1] (60° C.) was 35 M⁻¹ s⁻¹ and 35 ± 0.67 M⁻¹ s⁻¹; in data set [1] (65° C.), 38.3 ± 0.5 M⁻¹ s⁻¹; in data set [1] (70° C.), 53.3 M⁻¹ s⁻¹ and 53.3 ± 0.67 M⁻¹ s⁻¹. Further, the νmax in data set [1] (60° C.) was 2.5 U/mg and 2.5 ± 0.07 U/mg; in data set [1] (65° C.), 6.5 U/mg and 6.5 ± 0.57 U/mg; in data set [1] (70° C.), 9.1 U/mg and 9.1 ± 1.42 U/mg. In addition, the “Km increase (times) relative to 60° C.” value in data set [1] (65° C. and 70° C. vs 60° C.) is 2.4 times.

B1: Geobacillus thermodenitrificans arabinose isomerase (mGTAI), recombinant, expressed in and purified from Corynebacterium glutamicum mGTAIC001 (Geobacillus … (protein)
chain: MMLSLRPYELWFVTGSQHLYGEEALKQVEEHSRTIVNELNRDSVFPFPLVFKPIVTTPEEIRNICLEANASEQCAGVVTWMHTFSPAKMWIGGLLELRKPLLHLHTQFNRDIPWDSIDMDFMNLNQSAHGDREYGFIGARMGVARKVVVGHWEDPEVRERLAKWMRTAVAFAESRHLKVARFGDNMREVAVTEGDKVGAQIQFGWSINGYGIGDLVQSIRDVSEQSVNELLDEYAELYDIVPAGRQDGPVRESIREQARIELGLKAFLQDGNFTAFTTTFEDLHGMKQLPGLAVQRLMAEGYGFGGEGDWKTAALVRLMKVMADGKGTSFMEDYTYHFEPGNEMILGAHMLEVCPTIAATRPRIEVHPLSIGGKEDPARLVFDGGEGAAVNASLIDLGHRFRLIVNEVDAVKPEYDMPKLPVARILWKPRPSLRDSAEAWILAGGAHHTSFSFAVTAEQLEDFAEMTGIECVVIKEHTSVSSFKNELRWNEVFWRGR
As to B1, in data set [2] (other: 60° C.), the Km was determined as 67.0 ± 2.98 mM. Moreover, in data set [2] (other: 65° C.), the kcat/Km turned out to be 38.3 M⁻¹ s⁻¹.
